The record followed here is patent publication US8012949B2, “Bisphosphonate compounds and methods with enhanced potency for multiple targets including FPPS, GGPPS, and DPPS” (The Board of Trustees of the University of Illinois, priority 2004, dated 2011).

In series [1] the test system is SF-268 (central nervous system glioblastoma). Briefly: SF-268 cell growth inhibition (MTT). The following applies: Table 1, experimental. It counts as cell-based, human.
For series [2], the system named is MCF-7 (breast adenocarcinoma). Briefly: MCF-7 cell growth inhibition (MTT), incl. FOH/GGOH rescue. Type of series: cell-based, human. The following applies: for rescue from growth inhibition by geranylgeraniol (GGOH): GGOH 20 μM.
Series [3] can be described thus: Adsorption onto bone in vivo. The text has this:
(§1) A potential drawback to the use of bisphosphonates in treating non-bone resorption diseases is expected to be that they would be rapidly adsorbed onto bone. […]

For series [4], the system named is Vγ2Vδ2 T cells. Briefly: γδ T cell activation (TNF-α release and proliferation). It counts as cell-based, human. An outline of the steps: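 Vγ2Vδ2 T cell clones (CD4+ JN.24, CD4+ HF.2, CD8αα+ 12G12, CD4−8− HD.108) stimulated with phosphoantigens plus 0.05% glutaraldehyde-fixed APCs: CP.EBV B cells for CD4+ clones, Va-2 fibroblasts for others. TNF-α release and proliferation measured; curve minima from global fitting per experiment, maxima fitted per compound unconstrained.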

Series [5] deals with NCI-H460 (lung large cell). The series is described as follows: NCI-H460 cell growth inhibition (MTT). It counts as cell-based, human. As to conditions: Table 1, experimental.
For series [6], the target named is T1, human FPPS (Homo sapiens, UniProt P14324).
T1 construct: made in house
T1 sequence (P14324 1-419): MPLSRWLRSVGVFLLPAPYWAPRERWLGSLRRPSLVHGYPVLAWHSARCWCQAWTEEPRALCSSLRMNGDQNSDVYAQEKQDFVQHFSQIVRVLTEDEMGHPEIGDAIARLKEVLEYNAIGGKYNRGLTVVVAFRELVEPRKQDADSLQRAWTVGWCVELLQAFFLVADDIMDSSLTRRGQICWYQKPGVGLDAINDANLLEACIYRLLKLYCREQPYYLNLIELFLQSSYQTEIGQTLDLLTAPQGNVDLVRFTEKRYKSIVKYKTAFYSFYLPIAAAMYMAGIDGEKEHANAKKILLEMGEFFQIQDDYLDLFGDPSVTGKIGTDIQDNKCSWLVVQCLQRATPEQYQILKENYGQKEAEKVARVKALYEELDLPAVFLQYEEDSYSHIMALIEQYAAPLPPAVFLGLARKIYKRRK
Briefly: human FPPS enzyme inhibition. It counts as biochemical. The text has this:
(§2) To test our polypharmaceutical hypothesis, we expressed three enzymes: human FPPS, GGPPS and DPPS, and tested each for their inhibition by a series of bisphosphonates.

The target of series [7] is T2, human DPPS (Homo sapiens, UniProt Q5T2R2).
T2 construct: made in house
T2 sequence (Q5T2R2 1-415): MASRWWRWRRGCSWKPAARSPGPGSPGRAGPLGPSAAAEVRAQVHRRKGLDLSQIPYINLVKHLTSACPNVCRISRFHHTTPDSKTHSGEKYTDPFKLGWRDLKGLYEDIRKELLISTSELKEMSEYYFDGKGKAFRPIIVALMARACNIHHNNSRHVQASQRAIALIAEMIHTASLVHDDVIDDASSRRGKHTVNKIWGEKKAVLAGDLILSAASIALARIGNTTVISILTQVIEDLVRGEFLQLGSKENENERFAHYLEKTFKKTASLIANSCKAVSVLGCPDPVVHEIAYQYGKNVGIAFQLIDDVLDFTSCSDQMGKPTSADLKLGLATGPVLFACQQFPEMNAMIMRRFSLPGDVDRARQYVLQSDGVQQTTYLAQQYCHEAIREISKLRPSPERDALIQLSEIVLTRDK
T2 sequence (Q86YH6 1-399 partner): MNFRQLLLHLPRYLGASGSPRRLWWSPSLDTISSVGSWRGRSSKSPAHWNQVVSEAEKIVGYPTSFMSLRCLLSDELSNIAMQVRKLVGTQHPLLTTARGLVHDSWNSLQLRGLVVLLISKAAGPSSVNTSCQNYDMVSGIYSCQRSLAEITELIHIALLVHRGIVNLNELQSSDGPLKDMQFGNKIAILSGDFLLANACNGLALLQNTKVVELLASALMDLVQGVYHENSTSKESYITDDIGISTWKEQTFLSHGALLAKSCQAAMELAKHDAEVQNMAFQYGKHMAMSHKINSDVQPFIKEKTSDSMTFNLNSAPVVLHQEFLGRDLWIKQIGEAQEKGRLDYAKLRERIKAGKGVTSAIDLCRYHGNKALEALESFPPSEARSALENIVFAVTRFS
Briefly: human DPPS enzyme inhibition. Type of series: biochemical.
Excerpt: as §2

Series [8] has as its system SK-ES-1 sarcoma cells. Briefly: SK-ES-1 sarcoma mouse xenograft. As to conditions: daily intraperitoneal 5 μg, athymic nude mice, SK-ES-1 xenograft.
The test system of series [9] is bone resorption. The series is described as follows: Bone resorption IC50.
Excerpt: as §1

Series [10] has as its system MDA-MB-231 cells. The series is described as follows: Matrigel invasion assay. It counts as cell-based, human. As to conditions: Homo sapiens. The text has this:
Tumor cell invasiveness and in vivo results. […] .

[11] abbreviates: Homo sapiens, MCF7, FIG. 2A, read-out: IC50, MCF-7 tumor cell growth inhibition.

The structures appear in SMILES notation. Read-outs that look alike come from different tables or passages of the source.

For `O=P(O)(O)C(O)(Cc1cccc(-c2cccc(NS(=O)(=O)c3ccc4ccccc4c3)c2)c1)P(=O)(O)O` [BPH-675, 1-Hydroxy-2-[3′-(Naphthalene-2-sulfonylamino)-biphenyl-3-yl]ethylidene-1,1-bisphosphonic acid], in series [1], the “SF-268 pIC50 (M)” value worked out at 5.2 M. In addition, in series [2] (FIG. 2A, read-out: IC50, MCF-7 tumor cell growth inhibition), the IC50 was determined as 5000 nM. The “rescue from growth inhibition by geranylgeraniol (GGOH)” value in series [2] is on record as “essentially fully rescued”. Moreover, the “MCF-7 pIC50 (M)” value in series [2] (Table 1, experimental) is 5.2 M. For the same compound, the “adsorption onto bone in vivo” value in [3] is on record as “only very weakly adsorbed”. Also, the “γδ T cell activation” value in [4] is on record as “no effect at all”. For the same compound, in [5], the “NCI-H460 pIC50 (M)” value was 5.3 M. Also, the “effect on FPPS” value in series [6] is given as “no effect”. Besides, the “FPPS pKi (M)” value in series [6] (Table 1, experimental) worked out at 5.9 M. Also, the “effect on DPPS” value in series [7] is reported as “no effect”. In [7] (Table 1, experimental), this compound yielded a DPPS pKi of 6.5.

On to `CCCCCCCCCCOc1ccc[n+](CC(P(=O)([O-])O)P(=O)(O)O)c1` (stereo not shown) [BPH-715], for which the IC50 in [1] (Homo sapiens, SF-268, read-out: SF-268 pIC50 (converted)) was 100 nM; in series [2] (setting [11]), approximately 50 nM; in [2] (Homo sapiens, MCF7, Table 1, experimental, read-out: MCF-7 pIC50 (converted)), 200 nM; in series [2] (Homo sapiens, MCF7, Table 2, -log10(value, M), read-out: MCF-7 Cell pIC50 (converted)), 107 nM; in [5] (Homo sapiens, NCI-H460, read-out: NCI-H460 pIC50 (converted)), 63.1 nM; in series [9] it was approximately 800 nM. Moreover, in series [2] (FOH fixed 20 μM), the “rescue from growth inhibition by addition of farnesol” value was “no rescue”. Further, the “rescue from growth inhibition by geranylgeraniol (GGOH)” value in series [2] is given as “only a partial rescue”. In addition, the “adsorption onto bone in vivo” value in series [3] is recorded as “only very weakly adsorbed”. Also, the “reduction in tumor cell growth” value in series [8] is reported as “even more pronounced (p=0.032 versus zoledronate)”. Besides, the “γδ T cell activation” value in [4] was “potent activity”. Also, the EC50 in series [4] (Homo sapiens, T-cell, Table 2, -log10(value, M), read-out: γδ T Cell Avg pED50 (converted)) was 891 nM. Besides, the Ki in [6] (Table 1, experimental, read-out: FPPS pKi (converted)) is 50.1 nM; in [7] (Table 1, experimental, read-out: DPPS_pKi (converted)), 5.01 nM.

Take `O=P(O)(O)C(O)(Cn1ccnc1)P(=O)(O)O` [zoledronate, reference compound]: the IC50 is approximately 15000 nM in series [2] (setting [11]), approximately 40 µM in series [10], approximately 5 µM in [7] and approximately 70 nM in series [9]. The “reduction in tumor cell growth” value in series [8] is reported as “significant (p<0.01) reduction in tumor cell growth versus control”. Besides, the “effect on DPPS” value in series [7] is listed as “inhibited”.
